According to patent US6991818B2, “Compound iso-squamocin obtained from seeds of annona squamosa and composition containing the same” (Council of Scientific & Industrial Research, priority 2001, dated 2006):
Values after ≈ are worked out from the molar mass of the structure shown. Like-named read-outs stand apart in the source and are kept apart here.

Key:
[1] = system: yellow fever mosquito Aedes aegyptii; details: cited from earlier work
[2] = system: colon cell line (H-29); details: cited from earlier work
[3] = system: certain human tumor cell lines; details: values as low as; cited from earlier work
[4] = system: newly hatched variegated cutworm (peridroma saucia, Noctuidae); experiment: Chronic larval growth bioassay; type: in vivo; details: 10 days at 26° C.; for activity at 20 ppm: Peridroma saucia, 240 h; for activity at 20 ppm / Larval growth, % of control / Larval survival, % of control: newly hatched larvae (n=20), 20 ppm
Method: Chromic larveal growth bioassay % of control given in parenthesis. […] These bioassays were carried out according to the procedure described earlier (M. B. Isman, O. Koul, A. Luczynski and J. Kaminski, J. Agric. Food Chem. 38, 1406 (1990). These tests were performed by Prof. M. B. Isman and colleagues at University of British Columbia, Vancouver, Canada.

[5] = system: lung cell line (A-549); details: cited from earlier work
[6] = system: oriental armyworm (Mythimna separata WLK) larvae; experiment: Insect antifeedant bioassay on sorghum leaf discs; type: in vivo; details: for mortality: first and third instar larvae, concentration of 0.05% (MeOH) at 27°, untreated control 7% mortality; for Damage rating: 0.05% in methanol, visual scale 1 to 9 (1=<10%, 9=>80% leaf area consumed)
Method: The sample solutions (10 μl of a 0.05% solution) were applied evenly to the lower surface of leaf discs (5 cm^2) cut from sorghum hybrid variety CSH5 and the discs were allowed to dry on filter papers. After drying the leaf, discs were offered to 10 first instar M. separata larvae in plastic cups or to one third instar larva in 9-cm (diameter) plastic petric dishes. All larvae were starved for 2 h before the test and the leaf and the leaf discs were kept on moisture filter papers to keep them turgid. The larvae were confined to leaf discs for 24 h and during the period the larvae scratched or consumed >80% of the leaf disc area in the untreated controls. The leaf discs were rated visually for the extent of feeding on a scale upto 1 to 9 (1=<10%, 2=11 to 20%, 3=21 to 30%, 4=31 to 40%, 5=41 to 7=61 to 70%, 8=71 to 80%, 9=>80% leaf area scratched consumed). The larvae were then stirred for 12 h and weighed. Isosquamocin was evaluated by this procedure and the results have shown that it drastically. The feeding of the leaves of sorghum hybrid variety CSH 5 at a concentration of 0.05% in methanol) in comparison with control (methanol) against the first instar and third instar larvae of oriental armyworm (Mythimna separata WLK). It is very toxic to first instar larvae causing high larval mortality and the results are presented below: […]

[7] = system: Southern Corn rootworm (SCRW); experiment: Evaluation screen (EVAL) for insecticidal activity; type: in vivo; details: 250 ppm
[8] = system: Two spotted spidermite (TSSM); experiment: Evaluation screen delayed toxicity test (EVADT); type: in vivo; details: 250 ppm
Source text: (§1) Two spotted spidermite, green peach aphid (GPA) and corn plant hopper (GPH) when they were subjected evaluation screen (Eval) and evaluation screen delayed toxicity test EVDT for the insecticidal activity and results are summarized below: […]

[9] = system: green peach aphid (GPA); experiment: Evaluation screen delayed toxicity test (EVADT); type: in vivo; details: 250 ppm
Source text: as §1

[10] = system: corn plant hopper (CP-H); experiment: Evaluation screen delayed toxicity test (EVADT); type: in vivo; details: 250 ppm
Source text: as §1

[11] = system: Two spotted spidermite (TSSM); experiment: Evaluation screen (EVAL) for insecticidal activity; type: in vivo; details: 250 ppm
Source text: as §1

[12] = system: L-5178 Y; details: in vitro cytotoxic activity against L-5178 Y; cited from earlier work
[13] = system: two sported spider mite; details: in vivo; cited from earlier work
[14] = system: southern corn rootworm; details: in vivo; cited from earlier work
[15] = system: cotton aphid; details: in vivo; cited from earlier work
[16] = Solubility of the waxy substance; type: physicochemical
[17] = First instar larvae, 0.05% in methanol on leaf discs, 24 h

Q: Which “LC 50” value [1] does the source give for `CCCCCCCCCCCCC(O)C1CCC(C(O)CCCCC(O)CCCCCC(O)CC2=CC(C)OC2=O)O1` (stereo not drawn) [annonacin A, reference compound] here?
A: Its value is 10.8 mg/lit^−1.

Q: Which “times more toxic than adriamycin” value [2] does the source give for `CCCCCCCCCC[C@H](O)[C@H]1CC[C@H]([C@H](O)CC[C@H](O)[C@@H]2CC[C@@H](CCCCCCC[C@@H](O)CC3=C[C@H](C)OC3=O)O2)O1` [bullatalicin, bullatalicin/squamostatin-B] here?
A: Its value is “about 10,000 times”.

Q: What about the ED50 [3] of the same molecule?
A: Its ED50 is ≥ 10^−7 ug/ml.

Q: And the activity at 20 ppm ([4]; read-out: Larval growth, % of control)?
A: The activity at 20 ppm was 135%.

Q: What about the activity at 20 ppm ([4]; read-out: Larval survival, % of control) of the same molecule?
A: The activity at 20 ppm was 100%.

Q: And the “times more toxic than adriamycin” value [5]?
A: Its value is “about 10,000 times”.

Q: And the “LC 50” value [1]?
A: The value was 9 mg/lit^−1.

Q: Which mortality [6] does the source give for `CCCCCCCCCC[C@H](O)[C@H]1CC[C@H]([C@H]2CC[C@H]([C@H](O)CCCCCCCCCC[C@@H](O)CC3=C[C@H](C)OC3=O)O2)O1` [squamocin-G] here?
A: Its mortality is 70%.

Q: What about the SCRW [7] of the same molecule?
A: The SCRW was 100.

Q: And the “Larval growth, % of control” value [4]?
A: Its value is 34%.

Q: And the “Larval survival, % of control” value [4]?
A: The value was 45%.

Q: And the “EC 50” value ([4]; chronic larval growth bioassay)?
A: The value was 5.65 ppm.

Q: What about the “LC 50” value ([4]; chronic larval growth bioassay) of the same molecule?
A: Its value is 12 ppm.

Q: What about the TSSM [8] of the same molecule?
A: The TSSM was “L9 (Less than 90% reduction in population)”.

Q: What about the GPA [9] of the same molecule?
A: The GPA was “L8 (Less than 80% mortality)”.

Q: And the CP-H [10]?
A: Its CP-H is “G8 (Greater than 80% reduction in population)”.

Q: And the TSSM [11]?
A: The TSSM was “L8 (Less than 80% mortality)”.

Q: Which “Larval growth, % of control” value [4] does the source give for `CCCCCC[C@@H](O)CCC[C@H](O)[C@@H]1CC[C@@H]([C@H](O)CC[C@@H](O)[C@@H]2CC[C@@H](CCCCCCCCCC3=C[C@@H](C)OC3=O)O2)O1` [squamostatin-A] here?
A: The value was 138%.

Q: What about the “Larval survival, % of control” value [4] of the same molecule?
A: Its value is 100%.

Q: What about the IC50 [12] of the same molecule?
A: Its IC50 is 0.5 µg/mL (≈ 0.783 µM).

Q: Which “insecticidal concentration, two sported spider mite” value [13] does the source give for bullatacin here?
A: The value was 10 ppm.

Q: And the “insecticidal concentration, southern corn rootworm” value [14]?
A: The value was 24 ppm.

Q: What about the “insecticidal concentration, cotton aphid” value [15] of the same molecule?
A: Its value is 1 ppm.

Q: With “bullatanocin/squamostatin-C/Annonin-V/Cherimolin-II” as the molecule, how does the “times more toxic than adriamycin” value [2] read?
A: Its value is “about 10,000 times”.

Q: What about the “times more toxic than adriamycin” value [5] of the same molecule?
A: The value was “about 10,000 times”.

Q: Which “Larval Survival (%)” value [6, 17] does the source give for isosquamocin here?
A: The value was 10.4%.

Q: And the “Mean larval mass” value [6, 17]?
A: The value was 0.2 mg.

Q: What about the Damage rating ([6]; First instar larvae) of the same molecule?
A: The Damage rating was 1.3.

Q: And the “Mean larval mass” value ([6]; Third instar larvae, 0.05% in methanol on leaf discs, 24 h)?
A: The value was 15.7 mg.

Q: What about the Damage rating ([6]; Third instar larvae) of the same molecule?
A: Its Damage rating is 1.0.

Q: And the mortality [6]?
A: Its mortality is 70%.

Q: And the SCRW [7]?
A: Its SCRW is 100.

Q: And the “Larval growth, % of control” value [4]?
A: Its value is 20%.

Q: What about the “Larval survival, % of control” value [4] of the same molecule?
A: Its value is 55%.

Q: And the TSSM [8]?
A: Its TSSM is “L9 (Less than 90% reduction in population)”.

Q: What about the CP-H [10] of the same molecule?
A: Its CP-H is “G8 (Greater than 80% reduction in population)”.

Q: And the TSSM [11]?
A: The TSSM was “L8 (Less than 80% mortality)”.

Q: What about the “Solubility in ether, chloroform, dichloromethane, acetone, methanol and ethyl acetate” value [16] of the same molecule?
A: Its value is “readily soluble”.

Q: What about the “Solubility in petroleum ether/hexane and water” value [16] of the same molecule?
A: The value was “insoluble or very sparingly soluble”.
